Laboratory results taken from US9913854B2, “Methods and compositions for reducing the proliferation of gram positive bacteria” (priority 2012, dated 2018).
In brackets after ≈: the same amount, converted by molar mass. Entries after “also recorded” stand apart in the source; their conditions may differ. Like-named read-outs stand apart in the source and are kept apart here.

Legend:
S. aureus tarO mutant = test: Dye sensitivity test on agar plates; assay type: cell-based, Staphylococcus aureus; conditions: for selective suppression of growth of tarO mutant but not parental strain on dye agar: Newman ΔtarO vs Newman; for growth on agar with Congo Red: tarO mutant, 0.08% w/v Congo Red
Protocol: (§1) Congo Red sensitivity tests were conducted as previously described (Hubscher et al., FEMS Microbiol. Lett. 295:251-260, 2009), with minor modification. Briefly, 10-fold dilutions, starting at 10^6 colony forming units (CFU) in 5 μL, were spotted on brain heart infusion (BHI) agar or Luria-Bertani (LB) agar, supplemented with 0.08% (w/v) Congo Red where appropriate. The Congo Red agar plates were incubated at 37° C. or 30° C. for 24 hours. As a precaution to prevent possible inactivation of Congo Red by light, the plates were incubated in the dark. Sensitivity to Congo Red was determined by comparing colony density between parental and mutant strains on control and Congo Red plates. Sudan Red 7B (0.08% w/v), Calcofluor White (0.01% w/v), Direct Red (0.08% w/v), Mordant Black (0.08% w/v), or Acid Red (0.08% w/v) in BHI agar were tested similarly.

S. aureus Newman [1] = test: MIC, CLSI broth microplate assay; assay type: cell-based, Staphylococcus aureus
Protocol: (§2) In vitro susceptibility tests (minimum inhibitory concentration [MIC]) were conducted using the Clinical and Laboratory Standards Institute (CLSI) broth microplate assay guidelines (Clinical and Laboratory Standards Institute, Performance Standards for Antimicrobial Susceptibility Testing; 16th Informational Supplement, CLSI M100-S16, Wayne, Pa., 2006). Because of temperature sensitivity, to determine susceptibility of RN4220 ΔltaS, bacteria were cultured at 30° C. for 20 h.

S. aureus RN4220 = test: MIC, CLSI broth microplate assay; assay type: cell-based, Staphylococcus aureus
Protocol: as §2

[2] = tested on: S. aureus RN4220ΔltaS-ltaS; test: MIC, CLSI broth microplate assay; assay type: cell-based, Staphylococcus aureus
Protocol: as §2

S. aureus RN4220ΔltaS = test: MIC, CLSI broth microplate assay; assay type: cell-based, Staphylococcus aureus
Protocol: as §2

S. aureus RN4220ΔtarK = test: MIC, CLSI broth microplate assay; assay type: cell-based, Staphylococcus aureus
Protocol: as §2

S. aureus NewmanΔtarO = test: MIC, CLSI broth microplate assay; assay type: cell-based; conditions: Staphylococcus aureus
Protocol: as §2

S. aureus RN4220ΔtarA = test: MIC, CLSI broth microplate assay; assay type: cell-based; conditions: Staphylococcus aureus
Protocol: as §2

S. aureus RN4220ΔtarO = test: MIC, CLSI broth microplate assay; assay type: cell-based; conditions: Staphylococcus aureus
Protocol: as §2

S. aureus RN6390 = test: MIC, CLSI broth microplate assay; assay type: cell-based; conditions: Staphylococcus aureus; strain RN6390
Protocol: as §2

S. aureus RN6390ΔtarO = test: MIC, CLSI broth microplate assay; assay type: cell-based; conditions: Staphylococcus aureus
Protocol: as §2

[3] = tested on: S. aureus tarO and tarA mutants lacking WTA; test: MIC, for mutants lacking WTA; assay type: cell-based, Staphylococcus aureus
Protocol: as §2
Minimum inhibitory concentrations (MICs) for Congo Red were determined by microdilution assay. Consistent with the results of agar plate tests, the parental strain RN4220, and isogenic tarK, and ltaS mutants, as well as an ltaS strain complemented on a multicopy plasmid, were all resistant to Congo Red at concentrations>1024 mg/L (Table 2).

S. aureus tarA mutant = test: Congo Red sensitivity test on agar plates; assay type: cell-based, Staphylococcus aureus; conditions: 0.08% w/v Congo Red
Protocol: as §1

S. aureus tarK mutant = test: Congo Red sensitivity test on agar plates; assay type: cell-based, Staphylococcus aureus; conditions: 0.08% w/v Congo Red
Protocol: as §1

S. aureus ltaS mutant = test: Congo Red sensitivity test on agar plates; assay type: cell-based, Staphylococcus aureus; conditions: LB agar, 0.08% w/v Congo Red, 30° C. and 37° C.
Protocol: as §1
To determine whether loss of lipoteichoic acid (LTA) could also generate the Congo Red susceptible phenotype, an ltaS mutant of S. aureus was tested (Oku et al., J. Bacteriol. 191:141-151, 2009). The ltaS mutant is sensitive to heat and low osmolarity (Grundling et al., Proc. Natl. Acad. Sci. U.S.A. 104:8478-8483, 2007; Oku et al., J. Bacteriol. 191:141-151, 2009). Therefore, Congo Red was added at 0.08% w/v to Luria broth (LB) agar (having a higher NaCl concentration than BHI), and the strain was tested for Congo Red sensitivity at 30° C. […]

S. aureus Newman ΔtarO = test: Kinetics of Congo Red inhibition, growth in TSB; assay type: cell-based, Staphylococcus aureus; conditions: Newman tarO, 10 mg/L Congo Red
Protocol: FIG. 5 is a graph showing the growth of S. aureus strain Newman (closed circles) and Newman ΔtarO (open circles) in tryptic soy broth (TSB) before and following the addition of 10 mg/L Congo Red (black arrow).
To assess kinetics of Congo Red inhibition, growth of S. aureus strain Newman and its tarO mutant were assessed in TSB containing 10 mg/L Congo Red. Newman tarO began to die 3 hours after addition of Congo Red (FIG. 5). To probe the mechanism of killing, Congo Red-inhibited cells were examined by transmission electron microscopy (TEM) (FIGS. 6A-6D). […] Since Congo red contains two sulfonic-acid groups, the MICs for sulfanilamide which is developed from prontocil were determined in the Newman and tarO mutant strains.

S. aureus Newman [4] = test: Transmission electron microscopy after Congo Red; assay type: cell-based, Staphylococcus aureus; conditions: Newman parental; 6 hours in TSB with 10 mg/L Congo Red
Protocol: Newman or Newman ΔtarO were inoculated to approximately 10^9 CFU/mL in TSB containing 10 mg/L Congo Red, and cultured at 37° C. for 6 h. Cells were collected at 0 or 6 h, fixed in Karnovsky's fixative (2% paraformaldehyde and 2.5% glutaraldehyde in cacodylate buffer [pH 7.4]), and processed for TEM using standard procedures described in Suzuki et al. (Invest. Ophthalmol. Vis. Sci. 52:3187-3192, 2011). For TEM, 60- to […] sections were obtained, viewed, and photographed with a transmission electron microscope (model 410; Philips Electronics NV, Eindhoven, The Netherlands).

S. aureus strain Newman = test: Checkerboard assay, Congo Red and tunicamycin; assay type: cell-based, Staphylococcus aureus
Protocol: A standard checkerboard assay, using Congo Red and tunicamycin, was performed as described in Lorian (Antibiotics in Laboratory Medicine, 4th Edition, Baltimore, Md., Williams & Wilkins Co., 1996). To assess the kinetics of inhibition, cultures of strain Newman were started in TSB containing either Congo Red or tunicamycin. Briefly, an overnight culture of S. aureus strain Newman was diluted to approximately 10^5 CFU/mL in 10 mL of TSB containing 10 mg/L Congo Red or 1 mg/L tunicamycin, and cultured at 37° C. statically. Following 2 h incubation, tunicamycin (1 mg/L final concentration) was added to the Congo Red culture, or Congo Red (10 mg/L final concentration) was added to the tunicamycin culture. Following 6 h of additional incubation bacteria were enumerated by plating serial ten-fold dilutions.

C. elegans = test: Toxicity against uninfected C. elegans; assay type: in vivo, Caenorhabditis elegans; conditions: single agent; tunicamycin 6.25-100.0 mg/L, Congo Red 3.1-50.0 mg/L; uninfected worms
Protocol: (§3) C. elegans glp-4(bn2); sek-1(km4) was used for all experiments and infected essentially as described in Breger et al. (PLoS Pathog. 3:e18, 2007), with minor modifications. This mutant line was selected for liquid assay experiments because they are unable to produce progeny at 25° C. (Miyata et al., Genetics 178:903-918, 2008), and the deleted sek-1 gene encodes a conserved mitogen-activated protein (MAP) kinase involved in innate immunity (Kim et al., Science 297:623-626, 2002), expediting the rate of killing. Worms were cultured and maintained on nematode growth medium (NGM) agar containing lawns of E. coli HB101 (Breger et al., PLoS Pathog. 3:e18, 2007).
(§4) To assess the sensitivity of C. elegans to infection by S. aureus RN6390 or an isogenic ΔtarO strain, the bacteria were cultured in TSB at 37° C. Overnight cultures were plated onto 10 cm TSB agar plates for 18 hours at 37° C., and cooled at room temperature for 30 minutes. Washed young adult worms were infected on lawns of S. aureus strains for 3 hours at 25° C. After washing three times with M9, worms were transferred into the wells of a six well microtiter plates (40 worms per well). Each well contained 2 mL of assay medium (20% BHI: 80% M9 v/v) containing various concentrations of Congo Red, tunicamycin, or a combination of Congo Red and tunicamycin. […]

[5] = tested on: C. elegans infected with S. aureus RN6390; test: C. elegans infection model, S. aureus RN6390; assay type: in vivo, Caenorhabditis elegans; conditions: Congo Red alone 3.1-25.0 mg/L
Protocol: as §3, §4

[6] = tested on: C. elegans infected with S. aureus RN6390 ΔtarO; test: C. elegans infection model, S. aureus RN6390 ΔtarO; assay type: in vivo, Caenorhabditis elegans; conditions: Congo Red alone 3.1-25.0 mg/L
Protocol: as §3, §4

[7] = BHI agar, dye 0.08% w/v, 37° C., 24 hours

Molecule: CCN(CC)c1ccc2c(-c3ccc(S(=O)(=O)[O-])cc3S(=O)(=O)[O-])c3ccc(=[N+](CC)CC)cc-3oc2c1.[Na+] [Acid Red]
- selective suppression of growth of tarO mutant but not parental strain on dye agar (S. aureus tarO mutant; [7]): conferred susceptibility

Molecule: O=S(=O)(O)c1cc(Nc2nc(Nc3ccccc3)nc(N(CCO)CCO)n2)ccc1/C=C/c1ccc(Nc2nc(Nc3ccccc3)nc(N(CCO)CCO)n2)cc1S(=O)(=O)O [Calcofluor White]
- selective suppression of growth of tarO mutant but not parental strain on dye agar (S. aureus tarO mutant; BHI agar, dye 0.01% w/v, 37° C., 24 hours): conferred susceptibility

Molecule: Nc1c(/N=N/c2ccc(-c3ccc(/N=N/c4cc(S(=O)(=O)O)c5ccccc5c4N)cc3)cc2)cc(S(=O)(=O)O)c2ccccc12 [Congo Red]
- MIC (S. aureus Newman [1]; Staphylococcus aureus, NEWMAN): > 1020 µg/mL
- MIC (S. aureus Newman [1]; strain Newman, single agent): >1024 µg/mL
- MIC (S. aureus RN4220; Staphylococcus aureus, RN4220): > 1020 µg/mL
- MIC (S. aureus RN4220; strain RN4220): >1024 µg/mL
- MIC ([2]; Staphylococcus aureus): > 1020 µg/mL
- MIC ([2]; strain RN4220ΔltaS-ltaS (ltaS complemented on multicopy plasmid)): >1024 µg/mL
- MIC (S. aureus RN4220ΔltaS; Staphylococcus aureus, 20 h): > 1020 µg/mL
- MIC (S. aureus RN4220ΔltaS; strain RN4220ΔltaS, cultured at 30° C. for 20 h): >1024 µg/mL
- MIC (S. aureus RN4220ΔtarK; Staphylococcus aureus): > 1020 µg/mL
- MIC (S. aureus RN4220ΔtarK; strain RN4220ΔtarK): >1024 µg/mL
- MIC (S. aureus NewmanΔtarO): 1 µg/mL (≈ 1.53 µM)
- MIC (S. aureus RN4220ΔtarA): 0.5 µg/mL (≈ 0.766 µM)
- MIC (S. aureus RN4220ΔtarO): 2 µg/mL (≈ 3.06 µM)
- MIC (S. aureus RN6390): > 1020 µg/mL
- MIC (S. aureus RN6390ΔtarO): 4 µg/mL (≈ 6.13 µM)
- MIC ([3]; Staphylococcus aureus): 0.5 to 4 µg/mL (≈ 0.766 to 6.13 µM)
- MIC fold lower than resistant strains ([3]; tarO and tarA mutants vs parental, tarK, ltaS strains): 250-2000 fold
- growth on agar with Congo Red (S. aureus tarO mutant; BHI agar, 37° C., 24 hours): highly susceptible; also recorded: neither tarA nor tarO strains grew
- growth on agar with Congo Red (S. aureus tarO mutant; LB agar, 30° C. and 37° C.): inhibited
- growth on agar with Congo Red (S. aureus tarA mutant): neither tarA nor tarO strains grew
- growth on agar with Congo Red (S. aureus tarK mutant): not affected
- growth on agar with Congo Red (S. aureus ltaS mutant): no effect
- time after addition of Congo Red at which bacteria began to die (S. aureus Newman ΔtarO): 3 h
- cell morphology by TEM (S. aureus Newman [4]): not detectably affected
- Congo Red MIC in presence of tunicamycin (S. aureus strain Newman; tunicamycin as low as 5 mg/L): 1 µg/mL
- synergy with tunicamycin (S. aureus strain Newman; two-dimensional checkerboard, 20 hours, 37° C.): strong synergy
- toxicity for C. elegans (C. elegans): little toxicity
- rescue of infected nematodes (survival) [5]: little effect; also recorded: inability
- rescue of infected nematodes (survival) [6]: rescue

Molecule: CCNc1ccc2ccccc2c1N=Nc1ccc(N=Nc2ccccc2)cc1 [Sudan Red 7B]
- selective suppression of growth of tarO mutant but not parental strain on dye agar (S. aureus tarO mutant; [7]): conferred susceptibility

Molecule: Nc1ccc(S(N)(=O)=O)cc1 [sulfanilamide]
- MIC (S. aureus Newman [1]; Staphylococcus aureus, strain Newman, single agent, read-out: MIC): > 128 µg/mL
- MIC (S. aureus NewmanΔtarO): > 128 µg/mL

Molecule: Direct Red
- selective suppression of growth of tarO mutant but not parental strain on dye agar (S. aureus tarO mutant; [7]): conferred susceptibility

Molecule: Mordant black
- selective suppression of growth of tarO mutant but not parental strain on dye agar (S. aureus tarO mutant; [7]): conferred susceptibility

Molecule: tunicamycin
- toxicity for C. elegans (C. elegans): dose dependent toxicity
